Source: patent US20260263401A1, “Topical composition and uses thereof” (UNIVERSIDADE DE COIMBRA, priority 2022, published 2026)

Legend:
[1] = test system: Poly-L-Lysine Hydrobromide (PLL); experiment: Lysine depletion protocol (in chemico reactivity towards lysine); settings: 20 mM molecule incubated 1 h with DNFB 5 mM; FIG. 1B
Experimental: In an embodiment, a Lysine depletion Protocol—“in house development protocol” was applied, comprising: Dissolve 0.01 g of Poly-L-Lysine Hydrobromide (PLL) (Sigma, P1399) in 100 mL of purified water (use within 2 months). Filter the solution with a syringe filter to remove aggregates and store ate 4° C. for further use. For plate coating add 50 μL of PLL to each well of the 96 black bottom glass microplate (Corning ref 45806) and incubate for 2 hours at 37° C. or 24 h at room temperature.
In an embodiment, after the coating procedure, the contents of the plate were discarded into a sink and the plate is washed 3 times with 200 μL of PBS per well. Blot any residual PBS by firmly tapping the plate upside-down on absorbent paper. 20 mM of each potential ACD inhibitory molecule/mixture is added and incubated with 70 μl of the strong skin sensitizer 1-fluoro-2,4-dinitrobenzene (DNFB) (5 mM in DMSO) for 1h; the mixture was transferred to the plate and incubated for 24 h at 37° C. The contents of the plate were discarded and the wells were washed 3 times with PBS as previously reported. 70 μL of 10 μM Fluorescein-5-Ex-Succinimidyl Ester (FSE) were added and incubated for 1 h in the dark at 37° C. The contents of the plate were discarded; the wells were washed 3 times with PBS as previously stated. The fluorescence was read in a microplate reader (Exc 485±20 nm and Em 530±30 nm). Synergy™ HT plate reader (BioTek Instruments, Inc., Winooski, VT, USA): Bottom read with a sensibility of 50. […]
In an embodiment, Reference control A is made with the solvent DMSO, with incubation with FSE and is used to calculate the maximum fluorescence or absorbance in the presence of LYS. […]
In an embodiment, Test chemicals were pre-weighted into 1.5 mL test tubes and dissolved in 1 mL of DMSO to prepare a 100 mM solution immediately before use. The weight of the test chemical to be added to the vial was determined based on the molecular weight and purity. […]
In an embodiment, for the data Analysis the percentage of peptide depletion is determined by using the following formula: […]

[2] = Cysteine depletion protocol (glutathione in solution depletion); settings: FIG. 1A
Experimental: In an embodiment, Cysteine depletion Protocol-Glutathione in solution depletion protocol—“in house development protocol” was applied: • In a test tube, mix 10 μL of the 100 mM test chemical solution with 190 μL of GSH solution (20 μL of GSH 2 mM and 170 μL of PB) and Incubated at RT, protected from light, for 1 h in a tube roller (40 rpm) • […]; [test chemical]f=5 mM; [GSH]f=0.2 mM; • 20 μL of Ellman's reagent 10 mM, a thiol sensitive colorimetric reagent was added. Mix gently by tapping manually in the test tube and incubate for 10 min at RT, in a test tube rotator protected from light; • The absorbance was read in a microplate reader at 405 nm. • Note: For each assay, a fresh Glutathione stock of 50 mM (0.00768 g in 500 μL of PBS) and the second stock of 2 mM in PBS (2 μL of the […] solution+48 μl of PBS) were freshly prepared.
In an embodiment, Control and Test Chemical Preparation was applied: • DNFB is used as the positive control for the assay in every assay run. For the negative control LA is used and for the reference control three types of reference controls are included in each study: • Reference control A is made with the solvent DMSO, with incubation with Ellman's reagent and is used to calculate the maximum fluorescence or absorbance in the presence of CYS containing peptides. […]
Test Chemicals: In an embodiment, test chemicals were pre-weighted into 1.5 mL test tubes and dissolved in 1 mL of DMSO to prepare a 100 mM solution immediately before use. The weight of the test chemical to be added to the vial is determined based on the molecular weight and purity. […]
In an embodiment, for the data analysis, the percent depletion of peptide is determined by using the following formula: […]

[3] = test system: keratinocyte cell line (HaCat); experiment: Metabolic activity of human keratinocytes (Resazurin Assay); type: cell-based

| SMILES | reactivity of the strong allergen DNFB towards lysine (Lysine depletion) [1] | reactivity of the strong allergen DNFB towards cysteine (Glutathione depletion) [2] | cytotoxicity (metabolic activity) [3] |
| --- | --- | --- | --- |
| NCCCC[C@H](N)C(=O)O [LYS, lysine] | significantly inhibit | significantly inhibit | do not display cytotoxicity |
| CC(=O)N[C@@H](CS)C(=O)O [NAC, n-acetyl cysteine] | significantly inhibit | significantly inhibit | do not display cytotoxicity |
